Laboratory results reported in ChEMBL document CHEMBL3885861, “Open TG-GATES”.

Species on record: Rattus norvegicus
Experiment: Open TG-GATES - Regimen: Single
Assay type: toxicity, organism-based, Sprague-Dawley
Design: regimen Single, gender Male, age 6 weeks
Settings: in vivo, po, 0 mg/kg, route gavage, dose level Control; for APTT / Bas / Eos / Fbg / Hb / Ht / Lym / MCH / MCHC / MCV / Mono / Neu / PT / Plat / RBC / Ret / WBC: tissue Blood; for KIDNEY_L / KIDNEY_R / KIDNEY_TOTAL: tissue Kidney; for LIVER: tissue Liver; for A/G / ALP / ALT / AST / BUN / CRE / Ca / Cl / DBIL / GLC / IP / K / LDH / Na / PL / RALB / TBIL / TC / TG / TP / gamma-GTP: tissue Plasma

SMILES: C[C@H]1O[C@H](O[C@H]2[C@H](O)[C@@H](O)[C@@H](O[C@H]3[C@H](O)[C@@H](O)C(O)O[C@@H]3CO)O[C@@H]2CO)[C@H](O)[C@@H](O)[C@@H]1N[C@H]1C=C(CO)[C@@H](O)[C@H](O)[C@H]1O (some centres not stated) [ACARBOSE]
- TERMINAL_BW (3 h): 196.9 g
- APTT (3 h): 16.9 s
- Bas (3 h): 0.2%
- Eos (3 h): 0.8%
- Fbg (3 h): 275 mg/dL
- Hb (3 h): 13.4 g/dL
- Ht (3 h): 41.3%
- Lym (3 h): 78.6%
- MCH (3 h): 20.8 pg
- MCHC (3 h): 32.6%
- MCV (3 h): 63.7 fL
- Mono (3 h): 2.6%
- Neu (3 h): 16.8%
- PT (3 h): 13.6 s
- Plat (3 h): 116.5 x10_4/uL
- RBC (3 h): 647.8 x10_4/ul
- Ret (3 h): 8.1%
- WBC (3 h): 97.1 x10_2/uL
- KIDNEY_L (3 h): 0.9 g
- KIDNEY_R (3 h): 0.9 g
- KIDNEY_TOTAL (3 h): 1.8 g
- LIVER (3 h): 8.8 g
- A/G (3 h): 0.9
- ALP (3 h): 1499.8 IU/L
- ALT (3 h): 36 IU/L
- AST (3 h): 72.6 IU/L
- BUN (3 h): 10.4 mg/dL
- CRE (3 h): 0.2 mg/dL
- Ca (3 h): 10.7 mg/dL
- Cl (3 h): 105.2 meq/L
- DBIL (3 h): 0.006 mg/dL
- GLC (3 h): 174.6 mg/dL
- IP (3 h): 9.5 mg/dL
- K (3 h): 4 meq/L
- LDH (3 h): 58.2 IU/L
- Na (3 h): 141.4 meq/L
- PL (3 h): 133 mg/dL
- RALB (3 h): 2.5 g/dL
- TBIL (3 h): 0.06 mg/dL
- TC (3 h): 73.6 mg/dL
- TG (3 h): 46.8 mg/dL
- TP (3 h): 5.2 g/dL
- gamma-GTP (3 h): 1 IU/L
- TERMINAL_BW (6 h): 197.1 g
- APTT (6 h): 17.2 s
- Bas (6 h): 0.2%
- Eos (6 h): 0.6%
- Fbg (6 h): 286 mg/dL
- Hb (6 h): 13.2 g/dL
- Ht (6 h): 40.8%
- Lym (6 h): 73.6%
- MCH (6 h): 21 pg
- MCHC (6 h): 32.3%
- MCV (6 h): 64.9 fL
- Mono (6 h): 2.6%
- Neu (6 h): 22.4%
- PT (6 h): 13.7 s
- Plat (6 h): 125.4 x10_4/uL
- RBC (6 h): 629.8 x10_4/ul
- Ret (6 h): 8.4%
- WBC (6 h): 74.2 x10_2/uL
- KIDNEY_L (6 h): 0.9 g
- KIDNEY_R (6 h): 0.9 g
- KIDNEY_TOTAL (6 h): 1.9 g
- LIVER (6 h): 8.2 g
- A/G (6 h): 0.9
- ALP (6 h): 1467.2 IU/L
- ALT (6 h): 35.2 IU/L
- AST (6 h): 72.2 IU/L
- BUN (6 h): 8.8 mg/dL
- CRE (6 h): 0.2 mg/dL
- Ca (6 h): 10.5 mg/dL
- Cl (6 h): 104.6 meq/L
- DBIL (6 h): 0.004 mg/dL
- GLC (6 h): 166 mg/dL
- IP (6 h): 10.4 mg/dL
- K (6 h): 3.7 meq/L
- LDH (6 h): 65 IU/L
- Na (6 h): 141.6 meq/L
- PL (6 h): 136.8 mg/dL
- RALB (6 h): 2.5 g/dL
- TBIL (6 h): 0.064 mg/dL
- TC (6 h): 73.4 mg/dL
- TG (6 h): 72.4 mg/dL
- TP (6 h): 5.2 g/dL
- gamma-GTP (6 h): 1.4 IU/L
- TERMINAL_BW (9 h): 198.4 g
- APTT (9 h): 18.3 s
- Bas (9 h): 0%
- Eos (9 h): 0.8%
- Fbg (9 h): 306.6 mg/dL
- Hb (9 h): 13.2 g/dL
- Ht (9 h): 40.7%
- Lym (9 h): 75.2%
- MCH (9 h): 20.9 pg
- MCHC (9 h): 32.3%
- MCV (9 h): 64.8 fL
- Mono (9 h): 1.8%
- Neu (9 h): 21%
- PT (9 h): 13.6 s
- Plat (9 h): 122.9 x10_4/uL
- RBC (9 h): 629.4 x10_4/ul
- Ret (9 h): 8.4%
- WBC (9 h): 90.2 x10_2/uL
- KIDNEY_L (9 h): 0.9 g
- KIDNEY_R (9 h): 0.9 g
- KIDNEY_TOTAL (9 h): 1.8 g
- LIVER (9 h): 8.1 g
- A/G (9 h): 0.9
- ALP (9 h): 1467.6 IU/L
- ALT (9 h): 35.2 IU/L
- AST (9 h): 69.4 IU/L
- BUN (9 h): 8.6 mg/dL
- CRE (9 h): 0.2 mg/dL
- Ca (9 h): 10.4 mg/dL
- Cl (9 h): 104.2 meq/L
- DBIL (9 h): 0.006 mg/dL
- GLC (9 h): 177.8 mg/dL
- IP (9 h): 10.2 mg/dL
- K (9 h): 3.9 meq/L
- LDH (9 h): 63.8 IU/L
- Na (9 h): 140.8 meq/L
- PL (9 h): 133.6 mg/dL
- RALB (9 h): 2.5 g/dL
- TBIL (9 h): 0.06 mg/dL
- TC (9 h): 73.6 mg/dL
- TG (9 h): 52.4 mg/dL
- TP (9 h): 5.2 g/dL
- gamma-GTP (9 h): 1.2 IU/L
- TERMINAL_BW (24 h): 211.4 g
- APTT (24 h): 19.4 s
- Bas (24 h): 0%
- Eos (24 h): 1%
- Fbg (24 h): 269.6 mg/dL
- Hb (24 h): 13.2 g/dL
- Ht (24 h): 40.1%
- Lym (24 h): 73.6%
- MCH (24 h): 20.7 pg
- MCHC (24 h): 32.8%
- MCV (24 h): 63 fL
- Mono (24 h): 3.2%
- Neu (24 h): 21.4%
- PT (24 h): 13.1 s
- Plat (24 h): 113.4 x10_4/uL
- RBC (24 h): 636.6 x10_4/ul
- Ret (24 h): 7.9%
- WBC (24 h): 81.7 x10_2/uL
- KIDNEY_L (24 h): 1 g
- KIDNEY_R (24 h): 0.9 g
- KIDNEY_TOTAL (24 h): 1.9 g
- LIVER (24 h): 9.8 g
- A/G (24 h): 0.9
- ALP (24 h): 1381.8 IU/L
- ALT (24 h): 42.2 IU/L
- AST (24 h): 71.6 IU/L
- BUN (24 h): 14.2 mg/dL
- CRE (24 h): 0.2 mg/dL
- Ca (24 h): 10.7 mg/dL
- Cl (24 h): 103.8 meq/L
- DBIL (24 h): 0.006 mg/dL
- GLC (24 h): 175.8 mg/dL
- IP (24 h): 8.3 mg/dL
- K (24 h): 3.9 meq/L
- LDH (24 h): 60.8 IU/L
- Na (24 h): 141.4 meq/L
- PL (24 h): 139.8 mg/dL
- RALB (24 h): 2.5 g/dL
- TBIL (24 h): 0.062 mg/dL
- TC (24 h): 78 mg/dL
- TG (24 h): 59.2 mg/dL
- TP (24 h): 5.3 g/dL
- gamma-GTP (24 h): 1 IU/L
